These results are taken from US9802929B2, “Benzo five-membered nitrogen heterocyclic piperidine or piperazine derivatives and preparation methods and pharmaceutical compositions thereof” (Shenyang Haiwang Biotechnology Co., Ltd., priority 2012, dated 2017).

This assay relates to In-Vitro Vascular Smooth Muscle of Rabbits. The assay can be described thus: Relaxant effect on in vitro rabbit vascular smooth muscle contraction induced by hyperkalemia solution. The following applies: Oryctolagus cuniculus, relaxation of rabbit aortic rings contracted by hyperkalemia solution (K+ 60 mmol/L).
In general, EC50 refers to the concentration needed to bring the measured effect to its halfway point. Read a low EC50 as an effect from little substance. Regarding `Clc1cccc(C2CCN(CCCCn3cnc4ccccc43)CC2)c1` [Compound II-1, N-(4-(1H-benzimidazol-1-yl)butyl)-4-(3-chlorophenyl)piperidine], a half-maximal response (EC50) required 20.4 µM.
Then `FC(F)(F)c1cccc(C2CCN(CCCCn3cnc4ccccc43)CC2)c1` [Compound II-3, N-(4-(1H-benzimidazol-1-yl)butyl)-4-(3-trifluoromethylphenyl)piperidine], with 0.977 µM.
Then `COc1ccccc1C1CCN(CCCCn2cnc3ccccc32)CC1` [Compound II-6, N-(4-(1H-benzimidazol-1-yl)butyl)-4-(2-methoxyphenyl)piperidine], with 41.7 µM.
Then `FC(F)(F)c1cccc(C2CCN(CCCCn3nnc4ccccc43)CC2)c1` [II-4, N-(4-(1H-benzotriazole-1-yl)butyl)-4-(3-trifluoromethylphenyl)piperidine], with 0.759 µM; and `Fc1cccc(C2CCN(CCCCn3cnc4ccccc43)CC2)c1` [II-5, N-(4-(1H-benzimidazol-1-yl)butyl)-4-(3-fluorophenyl)piperidine], with 36.3 µM.
For `Fc1ccc2nnn(CCCCN3CCC(c4cccc(C(F)(F)F)c4)CC3)c2c1` [II-7, N-(4-(6-fluoro-1H-benzotriazole-1-yl)butyl)-4-(3-trifluoromethylphenyl)piperidine], a half-maximal response (EC50) required 9.33 µM.
Under `COc1ccc2nnn(CCCCN3CCC(c4cccc(C(F)(F)F)c4)CC3)c2c1` [II-8, N-(4-(6-methoxy-1H-benzotriazole-1-yl)butyl)-4-(3-trifluoromethylphenyl)piperidine] stands 27.5 µM; under `N#Cc1ccc2nnn(CCCCN3CCC(c4cccc(C(F)(F)F)c4)CC3)c2c1` [II-9, N-(4-(6-cyano-1H-benzotriazole-1-yl)butyl)-4-(3-trifluoromethylphenyl)piperidine], 58.9 µM.
As to `FC(F)(F)c1cccc(C2CCN(CCCOn3nnc4ccccc43)CC2)c1` [II-10, N-(4-(1H-benzotriazole-1-yl)propoxy)-4-(3-trifluoromethylphenyl)piperidine], a half-maximal response (EC50) required 6.03 µM.
Under `FC(F)(F)c1cccc(C2CCN(CCCOn3cnc4ccccc43)CC2)c1` [II-11] stands 6.76 µM; under `Cc1ccc2c(C3CCN(CCCn4nnc5ccccc54)CC3)noc2c1` [II-12, N-(3-(1H-benzotriazole-1-yl)propyl)-4-(3-(6-methyl-benzisoxazole))piperidine], 8.13 µM.
Then `COc1ccc2c(C3CCN(CCCn4nnc5ccccc54)CC3)noc2c1` [II-13, N-(3-(1H-benzotriazole-1-yl)propyl)-4-(3-(6-methoxy-benzene and isoxazole))piperidine], with 7.59 µM; and `Fc1ccc2c(C3CCN(CCCn4nnc5ccc(F)cc54)CC3)noc2c1` [II-14, N-(3-(6-fluoro-1H-benzotriazole-1-yl)propyl)-4-(3-(6-fluorobenzoisoxazole))piperidine], with 1.91 µM; and `Fc1ccc2c(C3CCN(CCCn4nnc5ccc(Cl)cc54)CC3)noc2c1` [II-15, N-(3-(6-chloro-1H-benzotriazole-1-yl)propyl)-4-(3-(6-fluorobenzoisoxazole))piperidine], with 7.59 µM.
Under `Cc1ccc2nnn(CCCN3CCC(c4noc5cc(F)ccc45)CC3)c2c1` [II-16, N-(3-(6-methyl-1H-benzotriazole-1-yl)propyl)-4-(3-(6-fluorobenzoisoxazole))piperidine] stands 5.25 µM; under `O=Cc1ccc2nnn(CCCN3CCC(c4noc5cc(F)ccc45)CC3)c2c1` [II-18, N-(3-(6-formyl-1H-benzotriazole-1-yl)propyl)-4-(3-(6-fluorobenzoisoxazole))piperidine], 4.79 µM; under `COc1ccc2nnn(CCCN3CCC(c4noc5ccccc45)CC3)c2c1` [II-19, N-(3-(6-methoxybenzotriazolyl)propyl)-4-(3-benzoisoxazole)piperidine], 7.76 µM.
`COc1ccc2c(C3CCN(CCCCn4nnc5ccc(C#N)cc54)CC3)noc2c1` [II-23, N-(4-(6-cyano-benzotriazole-yl)butyl)-4-(3-(6-methoxy-benzene and isoxazole)) piperidine] had an EC50 of 58.9 µM.
Then `c1coc(C2CCN(CCCCn3cnc4ccccc43)CC2)c1` [II-29, N-(4-(1H-benzimidazol-1-yl)butyl)-4-(2-furyl)piperidine], with 29.5 µM; and `c1ccc2c(c1)ncn2CCCCN1CCC(c2ccncc2)CC1` [II-30, N-(4-(1H-benzimidazol-1-yl)butyl)-4-(4-pyridyl)piperidine], with 55 µM; and `c1cnc(C2CCN(CCCCn3cnc4ccccc43)CC2)nc1` [II-31, N-(4-(1H-benzimidazol-1-yl)butyl)-4-(2-pyrimidinyl)piperidine], with 47.9 µM.
Under `c1ccc2c(c1)nnn2CCCCN1CCC(C2CCCCC2)CC1` [II-32, N-(4-(1H-benzotriazole-1-yl)butyl)-4-cyclohexyl piperidine] stands 72.4 µM; under `c1ccc2c(C3CCN(CCCCn4nnc5ccccc54)CC3)cccc2c1` [II-33, N-(4-(1H-benzotriazole-1-yl)butyl)-4-(1-naphthyl)piperidine], 91.2 µM.
Then `c1ccc2nc(C3CCN(CCCCn4nnc5ccccc54)CC3)cnc2c1` [II-34, N-(4-(1H-benzotriazole-1-yl)butyl)-4-(2-quinoxalinyl)piperidine], with 74.1 µM; and `N#Cc1ccc2nnn(CCCCN3CCN(c4cccc(C(F)(F)F)c4)CC3)c2c1` [II-84, 6-cyano-1-(4-(4-(3-trifluoromethylphenyl)piperazin-1-yl)butyl)-1H-benzotriazole], with 49 µM.
In turn, `COC(=O)c1ccc2nnn(CCCCN3CCN(c4cccc(C(F)(F)F)c4)CC3)c2c1` [II-85, 6-methoxycarbonyl-1-(4-(4-(3-trifluoromethylphenyl)piperazin-1-yl)butyl)-1H-benzotriazole] had an EC50 of 77.6 µM.
